From patent US4800201A, “1,4-thiazine derivative, and cardiotonic agent comprising it as effective component” (Zenyaku Kogyo Kabushiki Kaisha, priority 1984, dated 1989)

Legend:
[1] = test system: isolated left atrium of guinea pig; assay: Effect on isolated left atrium of guinea pig (Pharmacological Test 1, Table 1); design: species or system guinea pig (male Hartley); details: 1×10^-4 mole, electrically stimulated 0.5 cps, 30° to 32° C.
Protocol: Effect on isolated left atrium of guinea pig was tested according to the method described in Basic Lectures of Medicine Development, Volume V, Pharmacological Test Methods, Part 2, page 534 (1971) published by Chizin Shokan Kabushiki Kaisha in Japan. A 7-weeks-old male Hartley guinea pig (having body weight of about 350 g) was stunned by a blow on the head. The heart was cut out, and the left atrium was taken out in Krebs-Henseleit solution (prepared by adding distilled water for injection to 6.92 g of sodium chloride, 0.35 g of potassium chloride, 0.28 g of calcium chloride, 0.29 g of magnesium sulfate, 0.16 g of mono-basic potassium phosphate, 2.1 g of sodium bicarbonate and 1.8 g of glucose so that the total amount was 1000 ml) which was sufficiently bubbled with oxygen gas. The isolated left atrium was suspended in Magnus' bath at 30° to 32° C. and isometric contraction was recorded by the pen-writing oscillograph through the strain pressure amplifier connected to the force displacement pickup.
The atrium was stimulated electrically at 0.5 cps for 5 msec under a voltage of 20% above threshold. The nutritive liquid was Krebs-Henseleit solution through which 95% oxygen gas and 5% carbon dioxide was blown. Effect of each sample was tested 60 to 90 minutes after stimulation at which the generated tension became stable. In this test, corresponding concentration of each sample was 1×10^-4 mole.

[2] = test system: isolated auricule; assay: Effect on isolated auricule (Pharmacological Test 2, Table 2); design: species or system guinea pig (male Hartley); details: 3×10^-4 mole, 30°±1° C., recording 5 minutes; for activation at 300 µM: Cavia porcellus, 5 min, read-out: Increase in heart rate
Protocol: Effect on isolated auricule was tested according to the method of L. J. Mcleod described in Pharmacological Experiments on Intact Preparations, pages 112-115 (1970). A 7-weeks-old male Hartley guinea pig (having body weight of about 350 g) was killed by a blow on the head. The heart was cut out, and all the tissues except for the auricule were cut away in Ringer-Locke solution (prepared by adding distilled water for injection to 9.0 g of sodium chloride, 0.25 g of potassium chloride, 0.15 g of calcium chloride and 1.0 g of glucose so that the total amount was 1000 ml). One of cotton threads, which were tied to each tip of the auricule, is attached to Magnus' bath and the other to the force displacement pickup. The Magnus' bath was maintained at 30°±1° C. through which oxygen gas was bubbled. When the rhythmic movement and contraction of cardiac muscle became constant, recording by the pen-writing oscillograph was started. After 1 minute, sample compound was injected and recording was conducted for 5 minutes. After completion of recording, the isolated auricule was washed with Ringer-Locke solution until the rhythmic movement and contraction of cardiac muscle became constant. After 30 minutes, recording by the pen-writing oscillograph was started again. In this test, corresponding concentration of each sample was 3×10^-4 mole.

[3] = Acute toxicity, Litchfield-Wilcoxon method (Pharmacological Test 3, Table 3); details: mouse, in vivo, ip; intraperitoneal injection, 6-weeks-old male ddY mice
Protocol: The acute toxicity was determined according to the Litchfield-Wilcoxon method, J. Pharm. Exp. Ther., 96, 99 […] using 6-weeks-old male ddY mice (having body weight of 19-24 g) while administrating the sample compound in intraperitonial injection.

SMILES | Tension increment [1] | Tension increment [2] | activation at 300 µM [2] | LD50 [3]
CC1=C(c2ccncc2)SC(c2ccc(O)cc2)C(=O)N1 (stereo not shown) | 230 ± 92 mg | – | – | –
CC1=C(c2ccnnc2)SCC(=O)N1 | 225 ± 123 mg | – | – | –
CCC1SC(c2ccncc2)=C(C)NC1=O (stereo not shown) [2-ethyl-5-methyl-6-(4-pyridinyl)-2H-1,4-thiazin-3(4H)-one] | 925 ± 32 mg | 226 mg | 2.4% | 130 mg/kg
CC1=C(c2ccnc3ccccc23)SCC(=O)N1 [drawing 29] | – | – | – | 270 mg/kg
CC1=C(c2ccnc3ccccc23)SCC(=O)N1 [drawing 13] | 300 ± 125 mg | – | – | –
CC1=C(c2ccncc2C=O)SCC(=O)N1 | 278 ± 56 mg | – | – | –
CC1=C(c2ccncc2)SCC(=O)N1 [drawing 26] | – | 250 mg | 9.4% | –
CNC1SC(c2ccncc2)=C(C)NC1=O (stereo not shown) [5-methyl-2-methylamino-6-(4-pyridinyl)-2H-1,4-thiazin-3(4H)-one] | 233 ± 46 mg | – | – | –
CC1=C(c2ccncc2Cl)SCC(=O)N1 | 426 ± 56 mg | – | – | –
CC1=C(c2ccnc3ccccc23)SCC(=O)N1 [drawing 25] | – | 190 mg | 2.2% | –
CC1=C(c2ccncc2)SC(C)C(=O)N1 (stereo not shown) [2,5-dimethyl-6-(4-pyridinyl)-2H-1,4-thiazin-3(4H)-one] | 780 ± 93 mg | 158 mg | 2% | 230 mg/kg
CC1=C(c2ccncc2C#N)SCC(=O)N1 | 214 ± 56 mg | – | – | –
CC1=C(c2ccncc2)SCC(=O)N1 [drawing 30] | – | – | – | 275 mg/kg
CC1=C(c2ccncc2)SC(N2CCOCC2)C(=O)N1 (stereo not shown) | 207 ± 47 mg | – | – | –
